System: dapE- H. pylori mutant
Assay type: cell-based, Helicobacter pylori

N[C@H](CCC[C@H](N)C(=O)O)C(=O)O [DAP, diaminopimelic acid]
Minimum DAP concentration required for survival of the dapE− mutant: 0.2 mM

Source: patent US6570004B1 (priority 1996, dated 2003)
